Source: patent US9499550B2 (BRISTOL-MYERS SQUIBB COMPANY, priority 2012, dated 2016)
Like-named read-outs stand apart in the source and are kept apart here.

Tests used:
[1] = tested on: HCV genotype 1a (H77 strain) replicon in HUH-7 cells; experiment: HCV replicon luciferase reporter assay, genotype 1a; type: cell-based; conditions: Hepatitis C virus, Huh-7, 72 h, 3 days incubation, read-out: LE_1a (EC50, range)
Procedure, shortened: (§1)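 Replicon inhibition for both genotypes was measured as Renilla luciferase signal (EnduRen, 7.5 μM final, 2 h) after 3-day, 37° C exposure of replicon-bearing HUH-7 cells in 4% FCS DMEM, 0.5% DMSO. The 1b construct carries S1179I; the 1a H77 construct carries P1496L and S2204I. Twenty-point, 3-fold dilutions were fitted four-parametrically for EC50, and CC50 was taken from multiplexed Cell Titer-Blue.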

[2] = tested on: HCV genotype 1b (Con1) replicon in HUH-7 cells; experiment: HCV replicon luciferase reporter assay, genotype 1b; type: cell-based; conditions: Hepatitis C virus, Huh-7, 72 h, 3 days incubation, read-out: LE_1b (EC50, range)
Procedure, shortened: as §1

[3] = HCV genotype 1a replicon luciferase
[4] = HCV genotype 1b replicon luciferase
[5] = HCV genotype 1a replicon luciferase assay, range class
[6] = HCV genotype 1b replicon luciferase assay, range class

How did the EC50 [1, 3] turn out when CC[C@@H]1C[C@H](C)CC/C=C\[C@@H]2C[C@@]2(C(=O)NS(=O)(=O)C2(C)CC2)NC(=O)[C@@H]2C[C@@H](Oc3nc4cc(OC)ccc4nc3Cl)CN2C(=O)[C@H]1NC(=O)OC(C)(C)C [Compound 4256, tert-butyl ((2R,6S,7R,9R,13aS,14aR,16aS,Z)-2-((3-chloro-7-methoxyquinoxalin-2-yl)oxy)-7-ethyl-9-methyl-14a-(((1-methylcyclopropyl)sulfonyl)carbamoyl)-5,16-dioxo-1,2,3,5,6,7,8,9,10,11,13a,14,14a,15,16,16a-hexadecahydrocyclopropa[e]pyrrolo[1,2-a][1,4]diazacyclopentadecin-6-yl)carbamate] was run?
Its EC50 is 0.51 to 1 nM.

What about the EC50 [2, 4] of the same compound?
The EC50 was 0.1 to 0.5 nM.

Which results are given for CC[C@@H]1C[C@H](C)CC/C=C\[C@@H]2C[C@@]2(C(=O)NS(=O)(=O)C2(C)CC2)NC(=O)[C@@H]2C[C@@H](Oc3nc(OC)cc4cc(OC)ccc34)CN2C(=O)[C@H]1NC(=O)OC1(C(F)(F)F)COC1 [Compound 1122, 3-(trifluoromethyl)oxetan-3-yl ((2R,6S,7R,9R,13aS,14aR,16aS,Z)-2-((3,6-dimethoxyisoquinolin-1-yl)oxy)-7-ethyl-9-methyl-14a-(((1-methylcyclopropyl)sulfonyl)carbamoyl)-5,16-dioxo-1,2,3,5,6,7,8,9,10,11,13a,14,14a,15,16,16a-hexadecahydrocyclopropa[e]pyrrolo[1,2-a][1,4]diazacyclopentadecin-6-yl)carbamate]?
EC50 [1, 5]: < 5.46 nM; EC50 [2, 6]: < 5.46 nM

COc1ccc2c(O[C@@H]3C[C@H]4C(=O)N[C@]5(C(=O)NS(=O)(=O)C6(C)CC6)C[C@H]5/C=C\CC[C@@H](C)C[C@@H](C)[C@H](NC(=O)c5ccc(N(C)C)cc5)C(=O)N4C3)nccc2c1 [Compound 5181, (2R,6S,7R,9R,13aS,14aR,16aS,Z)-6-(4-(dimethylamino)benzamido)-2-((6-methoxyisoquinolin-1-yl)oxy)-7,9-dimethyl-N-((1-methylcyclopropyl)sulfonyl)-5,16-dioxo-1,2,3,5,6,7,8,9,10,11,13a,14,14a,15,16,16a-hexadecahydrocyclopropa[e]pyrrolo[1,2-a][1,4]diazacyclopentadecine-14a-carboxamide] was tested. Which EC50 [1, 3] did it give?
Its EC50 is under 5.46 nM.

And the EC50 [2, 4]?
Its EC50 is under 5.46 nM.

For C[C@@H]1CC/C=C\[C@@H]2C[C@@]2(C(=O)NS(=O)(=O)C2(C)CC2)NC(=O)[C@@H]2C[C@@H](Oc3nccc4c5c(ccc34)CCCO5)CN2C(=O)[C@@H](NC(=O)OC(C)(C)C(C)(F)F)[C@H](C)C1 [Compound 6060, 3,3-difluoro-2-methylbutan-2-yl((2R,6S,7R,9R,13aS,14aR,16aS,Z)-2-((3,4-dihydro-2H-pyrano[2,3-f]isoquinolin-7-yl)oxy)-7,9-dimethyl-14a-(((1-methylcyclopropyl)sulfonyl)carbamoyl)-5,16-dioxo-1,2,3,5,6,7,8,9,10,11,13a,14,14a,15,16,16a-hexadecahydrocyclopropa[e]pyrrolo[1,2-a][1,4]diazacyclopentadecin-6-yl)carbamate], which EC50 [1, 3] is on record?
The EC50 was 1.01 to 5 nM.

What about the EC50 [2, 4] of the same compound?
The EC50 was 1.01 to 5 nM.

Which results are given for COc1cc2c(OC)cnc(O[C@@H]3C[C@H]4C(=O)N[C@]5(C(=O)NS(=O)(=O)C6(C)CC6)C[C@H]5/C=C\CC[C@@H](C)C[C@@H](C)[C@H](NC(=O)OC(C)(C)C)C(=O)N4C3)c2cc1F [Compound 4070, tert-butyl (2R,6S,7R,9R,13aS,14aR,16aS,Z)-2-(7-fluoro-4,6-dimethoxyisoquinolin-1-yloxy)-7,9-dimethyl-14a-(1-methylcyclopropylsulfonylcarbamoyl)-5,16-dioxo-1,2,3,5,6,7,8,9,10,11,13a,14,14a,15,16,16a-hexadecahydrocyclopropa[e]pyrrolo[1,2-a][1,4]diazacyclopentadecin-6-ylcarbamate]?
EC50 [1, 3]: < 5.46 nM; EC50 [2, 4]: < 5.46 nM

Which EC50 [1, 3] does the source give for CC[C@@H]1C[C@H](C)CC/C=C\[C@@H]2C[C@@]2(C(=O)NS(=O)(=O)C2CC2)NC(=O)[C@@H]2C[C@@H](Oc3ncc(C(=O)O)c4cc(OC)ccc34)CN2C(=O)[C@H]1NC(=O)OC(C)(C)C [Compound 4278, 1-(((2R,6S,7R,9R,13aS,14aR,16aS,Z)-6-((tert-butoxycarbonyl)amino)-14a-((cyclopropylsulfonyl)carbamoyl)-7-ethyl-9-methyl-5,16-dioxo-1,2,3,5,6,7,8,9,10,11,13a,14,14a,15,16,16a-hexadecahydrocyclopropa[e]pyrrolo[1,2-a][1,4]diazacyclopentadecin-2-yl)oxy)-6-methoxyisoquinoline-4-carboxylic acid] here?
Its EC50 is 35 to 620 nM.

And the EC50 [2, 4]?
The EC50 was 35 to 620 nM.

With COc1ccc2c(O[C@@H]3C[C@H]4C(=O)N[C@]5(C(=O)NS(=O)(=O)C6(C)CC6)C[C@H]5/C=C\CC[C@@H](C)C[C@@H](C)[C@H](NC(=O)OC(C)(C)C)C(=O)N4C3)nc(N(C)C)cc2c1 [Compound 3109, tert-butyl ((2R,6S,7R,9R,13aS,14aR,16aS,Z)-2-((3-(dimethylamino)-6-methoxyisoquinolin-1-yl)oxy)-7,9-dimethyl-14a-(((1-methylcyclopropyl)sulfonyl)carbamoyl)-5,16-dioxo-1,2,3,5,6,7,8,9,10,11,13a,14,14a,15,16,16a-hexadecahydrocyclopropa[e]pyrrolo[1,2-a][1,4]diazacyclopentadecin-6-yl)carbamate] as the compound, how does the EC50 [1, 5] read?
Its EC50 is 4.82 to 103 nM.

And the EC50 [2, 6]?
Its EC50 is 4.82 to 103 nM.

For COc1ccc2c(O[C@@H]3C[C@H]4C(=O)N[C@]5(C(=O)NS(=O)(=O)C6(C)CC6)C[C@H]5/C=C\CC[C@@H](C)C[C@@H](C)[C@H](NC(=O)OC(C)(C)C(C)(F)F)C(=O)N4C3)nc3c(c2c1)CCCO3 [Compound 6082, 3,3-difluoro-2-methylbutan-2-yl((2R,6S,7R,9R,13aS,14aR,16aS,Z)-2-((9-methoxy-2,3-dihydro-1H-pyrano[2,3-c]isoquinolin-6-yl)oxy)-7,9-dimethyl-14a-(((1-methylcyclopropyl)sulfonyl)carbamoyl)-5,16-dioxo-1,2,3,5,6,7,8,9,10,11,13a,14,14a,15,16,16a-hexadecahydrocyclopropa[e]pyrrolo[1,2-a][1,4]diazacyclopentadecin-6-yl)carbamate], which EC50 [1, 3] is on record?
The EC50 was 0.51 to 1 nM.

And the EC50 [2, 4]?
Its EC50 is 1.01 to 5 nM.

What does the source list for [2H]C([2H])([2H])Oc1cnc(O[C@@H]2C[C@H]3C(=O)N[C@]4(C(=O)NS(=O)(=O)C5(C)CC5)C[C@H]4CCCC[C@@H](C)C[C@@H](C)[C@H](NC(=O)OC(C)(C)C(F)(F)F)C(=O)N3C2)c2ccccc12 [Compound 5111, 1,1,1-trifluoro-2-methylpropan-2-yl((2R,6S,7R,9R,13aR,14aR,16aS)-7,9-dimethyl-14a-(((1-methylcyclopropyl)sulfonyl)carbamoyl)-5,16-dioxo-2-((4-(trideuteromethoxy)isoquinolin-1-yl)oxy)octadecahydrocyclopropa[e]pyrrolo[1,2-a][1,4]diazacyclopentadecin-6-yl)carbamate]?
EC50 [1, 3]: < 5.46 nM; EC50 [2, 4]: < 5.46 nM

How did the EC50 ([1]; GETYPE1A, HCV genotype 1a replicon luciferase) turn out when CC[C@@H]1C[C@H](C)CC/C=C\[C@@H]2C[C@@]2(C(=O)NS(=O)(=O)C2CC2)NC(=O)[C@@H]2C[C@@H](Oc3ncc(N4CCOCC4)c4cc(OC)c(F)cc34)CN2C(=O)[C@H]1NC(=O)OC(C)(C)C(F)(F)F [Compound 4243] was run?
Its EC50 is 1.01 to 5 nM.

What about the EC50 ([2]; GETYPE1B, HCV genotype 1b replicon luciferase) of the same compound?
The EC50 was 0.51 to 1 nM.
